Common to all, as to test: NCI 60 cell one-dose screening (SRB)
Format in all cases: cell-based

In one assay the test system is 786-0. As to conditions: Homo sapiens; 786-0, Renal Cancer; single dose 10 µM, 48 h; read-out: Percentage of cellular growth inhibition. The protocol:
(§1) The 60 cancerous cell panel screening was performed following the Developmental Therapeutics Program (DTP) of the National Cancer Institute (NIH-NCI), USA. A single dose of 10 µM was used to perform the screening at 48 h incubation and the results were achieved as cancerous cell growth percentage relative to the no-drug control that was converted to an inhibition percentage by subtracting from 100.The cancerous cell lines were grown in RPMI 1640 medium containing 5% foetal bovine serum and 2 mM L-glutamine at 37 °C, 5% CO2, 95% air and 100% relative humidity for 24 h prior to addition of the tested compounds. After 24 h, two plates of each cell line were fixed in situ with TCA to represent a measurement of the cell population for each cell line at the time of drug addition (Tz). Compounds were dissolved in DMSO at 400-fold the desired final maximum test concentration and stored frozen prior to use. At the time of drug addition, an aliquot of frozen concentrate was thawed and diluted to twice the desired final maximum test concentration with complete medium containing 50 µg/mL gentamicin. Aliquots of 100 µL of the compounds dilution was added to the appropriate micro titre wells already containing 100 µL of medium, resulting in the required final drug concentrations of 10 µM. Following compounds addition, the plates were incubated for an additional 48 h at 37 °C, 5% CO2, 95% air, and 100% relative humidity. For adherent cells, the assay was terminated by the addition of cold TCA. Cells were fixed in situ by the gentle addition of 50 µL of cold 50% (w/v) TCA (final concentration, 10% TCA) and incubated for 60 min at 4 °C. The supernatant was discarded, and the plates were washed five times with tap water and air dried. Sulphorhodamine B (SRB) solution (100 µL) at 0.4% (w/v) in 1% acetic acid is added to each well, and plates are incubated for 10 min at room temperature. After staining, unbound dye was removed by washing five times with 1% acetic acid and the plates were air dried. Bound stain was subsequently solubilised with 10 mM trizma base, and the absorbance was read on an automated plate reader at a wavelength of 515 nm. For suspension cells, the methodology was the same except that the assay was terminated by fixing settled cells at the bottom of the wells by gently adding 50 µL of 80% TCA (final concentration, 16% TCA). Using the seven absorbance measurements [time zero, (Tz), control growth, I, and test growth in the presence of drug at the five concentration levels (Ti)], the percentage growth was calculated as: [(Ti−Tz)/(C−Tz)]×100 for concentrations for which Ti>/=Tz [(Ti−Tz)/Tz]×100 for concentrations for which Ti<Tz.

Another assay has as its system CCRF-CEM. The following applies: Homo sapiens, Leukemia, single dose 10 µM, 48 h, read-out: Percentage of cellular growth inhibition. The protocol: as §1
For a further assay, the system named is COLO 205. The following applies: Homo sapiens; COLO 205, Colon Cancer; single dose 10 µM, 48 h; read-out: Percentage of cellular growth inhibition. The protocol:
as §1

The next assay has as its system EKVX. The following applies: Homo sapiens, Non-Small Cell Lung Cancer, single dose 10 µM, 48 h, read-out: Percentage of cellular growth inhibition. The protocol: as §1
Another assay relates to HL-60(TB). The following applies: Homo sapiens, Leukemia, single dose 10 µM, 48 h, read-out: Percentage of cellular growth inhibition. The protocol: as §1
The subject of a further assay is HOP-62. The following applies: Homo sapiens; HOP-62, Non-Small Cell Lung Cancer; single dose 10 µM, 48 h; read-out: Percentage of cellular growth inhibition. The protocol:
as §1

Another assay concerns HS 578T. As to conditions: Homo sapiens, Breast Cancer, single dose 10 µM, 48 h, read-out: Percentage of cellular growth inhibition. The protocol:
as §1

A further assay deals with HT29. The following applies: Homo sapiens, HT-29; HT29, Colon Cancer; single dose 10 µM, 48 h; read-out: Percentage of cellular growth inhibition. The protocol:
as §1

The next assay relates to KM12. The following applies: Homo sapiens; KM12, Colon Cancer; single dose 10 µM, 48 h; read-out: Percentage of cellular growth inhibition. The protocol:
as §1

The subject of the next assay is MDA-MB-468. As to conditions: Homo sapiens; MDA-MB-468, Breast Cancer; single dose 10 µM, 48 h; read-out: Percentage of cellular growth inhibition. The protocol: as §1
The next assay concerns MOLT-4. As to conditions: Homo sapiens; MOLT-4, Leukemia; single dose 10 µM, 48 h; read-out: Percentage of cellular growth inhibition. The protocol:
as §1

The subject of another assay is NCI-H226. As to conditions: Homo sapiens; NCI-H226, Non-Small Cell Lung Cancer; single dose 10 µM, 48 h; read-out: Percentage of cellular growth inhibition. The protocol:
as §1

For another assay, the system named is NCI-H322M. As to conditions: Homo sapiens, Non-Small Cell Lung Cancer, single dose 10 µM, 48 h, read-out: Percentage of cellular growth inhibition. The protocol:
as §1

A further assay has as its system OVCAR-8. The following applies: Homo sapiens; OVCAR-8, Ovarian Cancer; single dose 10 µM, 48 h; read-out: Percentage of cellular growth inhibition. The protocol:
as §1

For the next assay, the system named is RPMI-8226. As to conditions: Homo sapiens; RPMI-8226, Leukemia; single dose 10 µM, 48 h; read-out: Percentage of cellular growth inhibition. The protocol: as §1
The subject of a further assay is RXF 393. As to conditions: Homo sapiens; RXF 393, Renal Cancer; single dose 10 µM, 48 h; read-out: Percentage of cellular growth inhibition. The protocol:
as §1

Another assay deals with SF-268. As to conditions: Homo sapiens; SF-268, CNS Cancer; single dose 10 µM, 48 h; read-out: Percentage of cellular growth inhibition. The protocol: as §1
A further assay relates to SF-539. As to conditions: Homo sapiens; SF-539, CNS Cancer; single dose 10 µM, 48 h; read-out: Percentage of cellular growth inhibition. The protocol: as §1
The subject of another assay is SK-MEL-5. The following applies: Homo sapiens; SK-MEL-5, Melanoma; single dose 10 µM, 48 h; read-out: Percentage of cellular growth inhibition. The protocol: as §1
The next assay has as its system SNB-75. As to conditions: Homo sapiens; SNB-75, CNS Cancer; single dose 10 µM, 48 h; read-out: Percentage of cellular growth inhibition. The protocol: as §1
A further assay relates to UO-31. The following applies: Homo sapiens; UO-31, Renal Cancer; single dose 10 µM, 48 h; read-out: Percentage of cellular growth inhibition. The protocol:
as §1

The values below come from publication PMC9897788, “Design, synthesis and cytotoxic evaluation of novel bis-thiazole derivatives as preferential Pim1 kinase inhibitors with in vivo and in silico study” (Journal of Enzyme Inhibition and Medicinal Chemistry, 2023).

In the case of `Cc1csc(Nc2cccc(Nc3nc(C)cs3)c2)n1` [3a, N^1,N^3-bis(4-methylthiazol-2-yl)benzene-1,3-diamine], the inhibition (as a rule, the change of the read-out against control, counted positive when it falls) at 10 µM was -10.8% in the assay with 786-0; 1.5% with CCRF-CEM; -3.8% in the assay with COLO 205; 14.7% in the assay on EKVX; 18.2% in the assay with HL-60(TB); 3.5% with HOP-62. In addition, the inhibition at 10 µM in the assay with HS 578T was 7.9%; in the assay on HT29, -6.8%; in the assay on KM12, 5.2%; with MDA-MB-468 it was 15.9%; in the assay on MOLT-4, 44%; in the assay on NCI-H226, 24.2%. For the same compound, the inhibition at 10 µM with NCI-H322M stood at 4.9%; in the assay on OVCAR-8, 21.2%; in the assay on RPMI-8226, 11.8%; with RXF 393, 4.8%; in the assay on SF-268, 1.4%; in the assay with SF-539 it was 7.9%. Besides, the inhibition at 10 µM in the assay on SK-MEL-5 came out at 6.2%; in the assay with SNB-75, 1.6%; with UO-31, 15.7%.

For `CC(=O)c1sc(Nc2cccc(Nc3nc(C)c(C(C)=O)s3)c2)nc1C` [3b, 1,1’-(2,2’-(1,3-Phenylenebis(azanediyl))bis(4-methylthiazole-5,2-diyl))diethanone], the inhibition at 10 µM in the assay with 786-0 turned out to be 44.3%; in the assay with CCRF-CEM, 38.8%; with COLO 205, 22.3%; in the assay with EKVX, 31.2%; in the assay on HL-60(TB) it was 65.8%; in the assay on HOP-62, 22.2%. Further, the inhibition at 10 µM is 47.3% with HS 578T; 30% in the assay on HT29; 39.8% in the assay on KM12; 45% in the assay with MDA-MB-468; 61.7% in the assay on MOLT-4; 34.6% in the assay on NCI-H226. The inhibition at 10 µM stood at 38.3% in the assay with NCI-H322M; 56.6% with OVCAR-8; 32.1% in the assay with RPMI-8226; 53% in the assay with RXF 393; 28.9% with SF-268; 27.8% with SF-539. Further, the inhibition at 10 µM came out at 44.2% with SK-MEL-5, 37.1% in the assay with SNB-75 and 67.8% with UO-31.

Take `Fc1ccc(-c2csc(Nc3cccc(Nc4nc(-c5ccc(F)cc5)cs4)c3)n2)cc1` [6b, N^1,N^3-bis(4–(4-fluorophenyl)thiazol-2-yl)benzene-1,3-diamine]: the inhibition at 10 µM in the assay on 786-0 stood at 31.2%; in the assay on CCRF-CEM it was 40.9%; in the assay on COLO 205 it was 24.3%; with EKVX, 60.2%; in the assay with HL-60(TB), 25.7%; with HOP-62, 27.3%. Besides, the inhibition at 10 µM with HS 578T was determined as 30.7%; with HT29 it was 37.7%; in the assay with KM12, 62.4%; with MDA-MB-468 it was 61.4%; with MOLT-4, 53.6%; with NCI-H226, 48.5%. Also, the inhibition at 10 µM with NCI-H322M amounted to 39.9%; in the assay with OVCAR-8, 32.1%; in the assay with RPMI-8226, 50.5%; with RXF 393, 24.5%; with SF-268, 42.1%; in the assay on SF-539, 29.1%. The inhibition at 10 µM in the assay with SK-MEL-5 came to 38.8%; in the assay with SNB-75, 4.8%; with UO-31, 68.7%.
